Experimental data reported in ChEMBL document CHEMBL1770151, “An efficient and expedient method for the synthesis of 11C-labeled α-aminoisobutyric acid: a tumor imaging agent potentially useful for cancer diagnosis” (Bioorg Med Chem Lett, 2011).

Tests used:
[1] = Drug uptake in human SY-cells xenografted mouse tumor at 20 MBq, iv after 50 to 60 mins by positron emission tomography; type: ADME, organism-based, Neoplasm; settings: in vivo
[2] = Drug uptake in human SY-cells xenografted mouse tumor at 200 kBq, iv after 15 to 25 mins by positron emission tomography; type: ADME, organism-based, Neoplasm; settings: in vivo

Drug uptake [1]	Drug uptake [2]	Compound
Active	–	CC([11CH3])(N)C(=O)O (stereo not drawn)
Active	–	[11CH3]SCC[C@H](N)C(=O)O
–	Active	OC[C@H]1O[C@@H](O)[C@H]([18F])[C@@H](O)[C@@H]1O [FLUDEOXYGLUCOSE-F18]
